{"source": "paper PMC11124362", "about": "“Metabolism, Disposition, Excretion, and Potential Transporter Inhibition of 7–16, an Improving 5-HT2A Receptor Antagonist and Inverse Agonist for Parkinson’s Disease” (Molecules, 2024)", "key": {"[1]": {"test": "Metabolite identification in rat liver microsomes", "format": "in vitro ADME", "settings": "7–16 10 µM, liver microsomes 1 mg/mL, NADPH, 37 °C, 60 min", "method": "(§1) In accordance with our previous methods, 7–16 (10 µM) was incubated with mouse, rat, dog, monkey, and human liver microsome proteins (1 mg/mL) in 100 mM sodium phosphate buffer (pH 7.4) containing 10 mM magnesium chloride and 2 mM NADPH at 37 °C for 60 min. All samples were prepared in duplicates. The reactions were terminated by adding three times the volume of ice-cold acetonitrile (600 µL) and stored at −20 °C until analysis. Control samples without NADPH and 0-time point samples were included. As a positive control, testosterone (10 µM), which was metabolized to produce the hydroxylation metabolite, was used as a substrate to confirm the activity of the incubation system.\n(§2) After pre-treatments, the samples were analyzed by an Acquity UPLC system coupled with a diode array detector (Waters Corporation, Milford, MA, USA) and Q Exactive HRMS (Thermo Electron Corporation, Waltham, MA, USA) (UPLC–UV-Q Exactive HRMS). Samples were separated on an Agilent XDB C18 column (150 × 2.1 mm i.d. 3.5 μm, Agilent Corporation, Santa Clara, CA, USA) at 40 °C by gradient elution with water and acetonitrile containing 0.1% formic acid. The flow rate was 0.40 mL/min. The ultraviolet (UV) detection wavelength was 286 nm. Q Exactive HRMS were operated at positive ion mode (3.5 kV) using a heating electrospray ionization source. Mass calibration was required to be performed before conducting experiments so as to achieve the best mass accuracy and mass calibration should be performed every five days. The metabolites were detected by full MS/dd-MS^2 analysis from m/z 100 to m/z 1000. The resolution of the first-class scan and second-class scan was 70,000 and 17,500, respectively. Thermo Compound Discover software was used to identify expected and unknown metabolites, and we finally proposed the 7–16 metabolic pathways based on the deduced metabolites and relevant drug biotransformation knowledge."}, "[2]": {"test": "Metabolite identification in dog liver microsomes", "format": "in vitro ADME", "settings": "7–16 10 µM, liver microsomes 1 mg/mL, NADPH, 37 °C, 60 min", "method": "as §1, §2"}, "[3]": {"test": "Metabolite identification in mouse liver microsomes", "format": "in vitro ADME", "settings": "7–16 10 µM, liver microsomes 1 mg/mL, NADPH, 37 °C, 60 min", "method": "as §1, §2"}, "[4]": {"test": "Excretion and metabolite identification in urine and feces of intact rats", "format": "in vivo, Sprague-Dawley rats", "settings": "for Dose% Feces, female / Dose% Urine, female: female rats; for Dose% Feces, female / Dose% Urine, female / Dose% Feces, male / Dose% Urine, male: single oral dose [14C]7–16 3 mg/100 µCi/kg; for Dose% Feces, male / Dose% Urine, male: male rats", "method": "(§3) In the urine and feces excretion experiment, six rats (3 females and 3 males) were administered a single oral dose of [^14C]7–16 at 3 mg/100 µCi/kg. Urine, feces and cage washing/cleaning solution samples were collected from 0 to 168 h following drug administration at the following time intervals: 0–8, 8–24 h (0–24 h for feces), 24–48, 48–72, 72–96, 96–120, 120–144, and 144–168 h. In the biliary excretion experiment, 8 rats using a bile duct cannula (BDC) (4 females and 4 males) were administered a single oral dose of [^14C]7–16 at 3 mg/100 µCi/kg. Bile, urine, feces, and cage washing solution were collected from before and 0–72 h after oral administration at the following time intervals: 0–4, 4–8 (urine 0–8), 8–24 (feces 0–24), 24–48, and 48–72 h. All samples were collected and refrigerated at −20 °C until determination of the radioactive concentrations by liquid scintillation counter (Perkin Elmer Corporation, Waltham, MA, USA). Urine, feces, and bile samples at each time period were mixed by equal percentages of either volume or weight. After the mixed samples were treated, the radio-profiles and metabolite identification in the bile, urine, and feces samples were carried out by LC-RAM and UPLC-Q Exactive HRMS, and the TRA% of each metabolite in plasma and the percentage of dose (dose%) of each compound in urine, feces, and bile samples were calculated."}, "[5]": {"test": "Excretion and metabolite identification in bile duct cannulated (BDC) rats", "format": "in vivo, Sprague-Dawley rats", "settings": "single oral dose [14C]7–16 3 mg/100 µCi/kg; for Dose% Bile, female: female BDC rats; for Dose% Bile, male: male BDC rats", "method": "as §3"}, "[6]": {"test": "Metabolite identification in monkey liver microsomes", "format": "in vitro ADME", "settings": "7–16 10 µM, liver microsomes 1 mg/mL, NADPH, 37 °C, 60 min", "method": "as §1, §2"}, "[7]": {"test": "Metabolite identification in rat plasma after oral [14C]7–16", "format": "in vivo, Sprague-Dawley rats", "settings": "single oral dose [14C]7–16 3 mg/100 µCi/kg, pooled plasma 0.25-24 h; for TRA% Plasma, female: female rats; for TRA% Plasma, male: male rats", "method": "The rats received a single oral dose of [^14C]7–16 at 3 mg/100 µCi/kg (3 females and 3 males for each time point). At 0.25, 1, 6, and 24 h after administration, about 0.3 mL of blood was collected into a collection vessel containing K2-EDTA anticoagulant by cardiac puncture, and the plasma samples were acquired after centrifugation at 8000 rpm for 10 min at 4 °C. All samples were stored at −20 °C until analysis. The rat plasma samples at each time point were mixed in accordance with the area under the concentration curve contribution at corresponding time intervals. After the pooled plasma samples were pre-treated, the radio-profiles of plasma samples were detected using Shimadzu LC coupled with a radioactivity monitor (LC-RAM, Scintillation and Luminescence Counter Technology, Perkin Elmer Corporation, Waltham, MA, USA), and the metabolites were identified by UPLC-QE HRMS (Thermo Electron Corporation, Waltham, MA, USA). The percentage of each metabolite based on the total radiation intensity (TRA%) in plasma samples was calculated. The structures of metabolites were identified by the same method used for metabolite identification in the liver microsomes of different species."}, "[8]": {"test": "Metabolite identification in human liver microsomes", "format": "in vitro ADME", "settings": "7–16 10 µM, liver microsomes 1 mg/mL, NADPH, 37 °C, 60 min", "method": "as §1, §2"}}}
{"smiles": "O=C(NCc1ccc(OCC(F)(F)F)cc1)N(Cc1ccc(F)cn1)C1CCNCC1", "note": "[Compound M440]", "values": [{"measurement": "Relative Abundance, UV Area% Rat", "setting": "[1]", "result": 1.29, "unit": "%"}, {"measurement": "Relative Abundance, UV Area% Dog", "setting": "[2]", "result": 0.47, "unit": "%"}, {"measurement": "Relative Abundance, UV Area% Mouse", "setting": "[3]", "result": 0.39, "unit": "%"}, {"measurement": "Dose% Feces, female", "setting": "[4]", "result": 21.1, "unit": "%"}, {"measurement": "Dose% Urine, female", "setting": "[4]", "result": 2.66, "unit": "%"}, {"measurement": "Dose% Feces, male", "setting": "[4]", "result": 24.2, "unit": "%"}, {"measurement": "Dose% Urine, male", "setting": "[4]", "result": 5.77, "unit": "%"}, {"measurement": "Dose% Bile, female", "setting": "[5]", "result": 2.71, "unit": "%"}, {"measurement": "Dose% Bile, male", "setting": "[5]", "result": 3.83, "unit": "%"}, {"measurement": "Relative Abundance, UV Area% Monkey", "setting": "[6]", "result": 1.73, "unit": "%"}, {"measurement": "TRA% Plasma, female", "setting": "[7]", "result": 1.40, "unit": "%"}, {"measurement": "TRA% Plasma, male", "setting": "[7]", "result": 3.70, "unit": "%"}, {"measurement": "Relative Abundance, UV Area% Human", "setting": "[8]", "result": 0.78, "unit": "%"}]}
{"smiles": "CN1CCC(N(Cc2ccc(F)cn2)C(=O)N[14CH2]c2ccc(OCC(F)(F)F)cc2)CC1", "note": "[[^14C]7–16]", "values": [{"measurement": "Dose% Feces, female", "setting": "[4]", "result": 16.8, "unit": "%"}, {"measurement": "Dose% Urine, female", "setting": "[4]", "result": 23.6, "unit": "%"}, {"measurement": "recovery of radioactivity within the first 24 h, percent of dose", "setting": "[4]; intact rats, first 24 h post-administration", "result": 76.8, "unit": "%"}, {"measurement": "Dose% Feces, male", "setting": "[4]", "result": 5.29, "unit": "%"}, {"measurement": "Dose% Urine, male", "setting": "[4]", "result": 9.79, "unit": "%"}, {"measurement": "Dose% Bile, female", "setting": "[5]", "result": 0.76, "unit": "%"}, {"measurement": "Dose% Bile, male", "setting": "[5]", "result": 0.53, "unit": "%"}, {"measurement": "TRA% Plasma, female", "setting": "[7]", "result": 81.9, "unit": "%"}, {"measurement": "TRA% Plasma, male", "setting": "[7]", "result": 57.3, "unit": "%"}]}
{"smiles": "CN1CCC(N(Cc2ccc(F)cn2)C(=O)NCc2ccc(O)cc2)CC1", "note": "[Compound M372]", "values": [{"measurement": "Relative Abundance, UV Area% Rat", "setting": "[1]", "result": 1.10, "unit": "%"}, {"measurement": "Relative Abundance, UV Area% Dog", "setting": "[2]", "result": 1.73, "unit": "%"}, {"measurement": "Relative Abundance, UV Area% Mouse", "setting": "[3]", "result": 0.61, "unit": "%"}, {"measurement": "Dose% Feces, female", "setting": "[4]", "result": 4.97, "unit": "%"}, {"measurement": "Dose% Urine, female", "setting": "[4]", "result": 4.34, "unit": "%"}, {"measurement": "Dose% Feces, male", "setting": "[4]", "result": 5.42, "unit": "%"}, {"measurement": "Dose% Urine, male", "setting": "[4]", "result": 5.75, "unit": "%"}, {"measurement": "Dose% Bile, female", "setting": "[5]", "result": 0.41, "unit": "%"}, {"measurement": "Dose% Bile, male", "setting": "[5]", "result": 0.83, "unit": "%"}, {"measurement": "Relative Abundance, UV Area% Monkey", "setting": "[6]", "result": 2.52, "unit": "%"}, {"measurement": "TRA% Plasma, female", "setting": "[7]", "result": 1.11, "unit": "%"}, {"measurement": "TRA% Plasma, male", "setting": "[7]", "result": 2.50, "unit": "%"}, {"measurement": "Relative Abundance, UV Area% Human", "setting": "[8]", "result": 0.60, "unit": "%"}]}
